Laboratory results taken from US12123031B2, “Regulation of CRISPR-associated rossman fold (CARF) domain containing proteins by oligoadenylates” (VILNIUS UNIVERSITY, priority 2017, dated 2024).

Key:
[1] = molecular target: T1, StCsm complex (Palm domain of StCas10 subunit) (Streptococcus thermophilus, UniProt A0A0A7HFE1); test: Nucleotide binding assay (EMSA); conditions: for affinity towards nucleotide: EMSA, binary and ternary StCsm
T1 construct: made in house; host or cells: Escherichia coli BL21 (DE3)
T1 sequence (A0A0A7HFE1 whole entry, the tested form may be a part): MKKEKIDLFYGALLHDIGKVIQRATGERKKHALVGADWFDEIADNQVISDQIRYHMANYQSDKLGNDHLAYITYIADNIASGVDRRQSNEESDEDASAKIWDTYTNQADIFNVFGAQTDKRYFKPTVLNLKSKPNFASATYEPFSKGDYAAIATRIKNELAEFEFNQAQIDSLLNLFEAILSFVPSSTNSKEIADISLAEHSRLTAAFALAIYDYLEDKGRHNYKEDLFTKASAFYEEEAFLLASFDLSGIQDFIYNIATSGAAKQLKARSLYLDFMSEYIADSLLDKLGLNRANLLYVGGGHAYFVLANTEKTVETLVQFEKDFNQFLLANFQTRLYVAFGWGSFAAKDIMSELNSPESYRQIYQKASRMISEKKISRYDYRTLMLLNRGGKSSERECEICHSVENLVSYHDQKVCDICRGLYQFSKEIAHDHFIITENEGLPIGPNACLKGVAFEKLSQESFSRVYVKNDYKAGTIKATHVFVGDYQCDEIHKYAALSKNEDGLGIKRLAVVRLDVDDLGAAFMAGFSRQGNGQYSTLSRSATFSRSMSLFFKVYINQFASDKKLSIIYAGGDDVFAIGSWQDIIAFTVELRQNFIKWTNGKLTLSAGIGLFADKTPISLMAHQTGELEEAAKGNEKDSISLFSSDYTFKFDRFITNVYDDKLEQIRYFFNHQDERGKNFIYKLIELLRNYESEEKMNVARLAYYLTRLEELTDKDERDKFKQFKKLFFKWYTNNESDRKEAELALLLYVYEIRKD
T1 sequence (A0A0A7HF79 whole entry, further chain, the tested form may be a part): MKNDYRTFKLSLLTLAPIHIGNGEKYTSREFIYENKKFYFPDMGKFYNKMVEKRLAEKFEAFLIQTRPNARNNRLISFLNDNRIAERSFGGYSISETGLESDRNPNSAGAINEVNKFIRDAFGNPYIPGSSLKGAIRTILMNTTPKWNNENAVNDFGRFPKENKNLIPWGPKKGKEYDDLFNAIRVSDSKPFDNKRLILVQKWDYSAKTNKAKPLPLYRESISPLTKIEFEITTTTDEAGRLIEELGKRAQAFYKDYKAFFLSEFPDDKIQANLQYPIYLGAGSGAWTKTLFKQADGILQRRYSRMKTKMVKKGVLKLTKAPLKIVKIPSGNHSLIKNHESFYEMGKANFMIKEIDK
T1 sequence (A0A0A7HIF0 whole entry, further chain, the tested form may be a part): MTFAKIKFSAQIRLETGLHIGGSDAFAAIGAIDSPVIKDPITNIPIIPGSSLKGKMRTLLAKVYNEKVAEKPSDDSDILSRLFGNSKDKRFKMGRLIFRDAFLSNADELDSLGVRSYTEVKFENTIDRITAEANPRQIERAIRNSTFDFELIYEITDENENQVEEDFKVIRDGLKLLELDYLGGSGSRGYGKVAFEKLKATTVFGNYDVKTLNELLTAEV
T1 sequence (A0A0A7HGA1 whole entry, further chain, the tested form may be a part): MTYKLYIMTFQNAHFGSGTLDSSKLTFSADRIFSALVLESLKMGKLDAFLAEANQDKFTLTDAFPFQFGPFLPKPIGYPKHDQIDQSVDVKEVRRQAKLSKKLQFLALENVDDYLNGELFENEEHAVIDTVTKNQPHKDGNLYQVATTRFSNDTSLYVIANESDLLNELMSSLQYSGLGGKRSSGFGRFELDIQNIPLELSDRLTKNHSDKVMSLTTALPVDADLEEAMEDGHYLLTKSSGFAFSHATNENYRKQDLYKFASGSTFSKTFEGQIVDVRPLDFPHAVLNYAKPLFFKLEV
T1 sequence (A0A0A7HIX1 whole entry, further chain, the tested form may be a part): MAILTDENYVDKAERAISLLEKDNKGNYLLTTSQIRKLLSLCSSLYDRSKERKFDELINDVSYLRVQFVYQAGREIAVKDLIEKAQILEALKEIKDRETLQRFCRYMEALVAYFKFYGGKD
Description: Nucleotide binding assay. Nucleotide binding assays were performed by incubating different amounts of StCsm complexes with 10 nM of ^32P-radiolabeled-nucleoside triphosphates in the Binding buffer (40 mM Tris, 20 mM acetic acid (pH 8.4 at 25° C.), 1 mM EDTA, 0.1 mg/ml BSA, 10% (v/v) glycerol). All reactions were incubated for 15 min at room temperature prior to electrophoresis on native 8% (w/v) polyacrylamide gel (PAAG). Electrophoresis was carried out at room temperature for 2 h at 6 V/cm using 40 mM Tris, 20 mM acetic acid (pH 8.4 at 25° C.), 0.1 mM EDTA as the running buffer. Gels were dried and visualized by a FLA-5100 phosphorimager (Fujifilm).
NTP binding by binary and ternary StCsm complexes was monitored using EMSA. The binding reactions contained 2 nM of α^32P-radiolabeled and 8 nM of the corresponding non-labeled nucleotide (ATP, 2′dATP, 3′dATP, GTP, UTP or CTP (Perkin Elmer)) in addition to the StCsm complex (without RNA, with the target RNA S3/2 or non-specific RNA NS, as denoted above the gels), at concentrations indicated by each lane. Samples were analyzed in PAAG under non-denaturing conditions.

ternary StCsm complex = molecular target: T2, ternary StCsm complex (Streptococcus thermophilus, UniProt A0A0A7HFE1); test: StCsm mediated conversion of nucleoside triphosphates to reaction products (TLC); type: biochemical; conditions: 200 nM ternary StCsm, 50 μM nucleotide, 10 mM CoCl2, 37° C.
T2 construct: made in house; host or cells: Escherichia coli BL21 (DE3)
T2 sequence (A0A0A7HFE1 whole entry): as the sequence (A0A0A7HFE1 whole entry, the tested form may be a part) above
T2 sequence (A0A0A7HGA1 whole entry, further chain): as the sequence (A0A0A7HGA1 whole entry, further chain, the tested form may be a part) above
T2 sequence (A0A0A7HIF0 whole entry, further chain): as the sequence (A0A0A7HIF0 whole entry, further chain, the tested form may be a part) above
T2 sequence (A0A0A7HIX1 whole entry, further chain): as the sequence (A0A0A7HIX1 whole entry, further chain, the tested form may be a part) above
T2 sequence (A0A0A7HF79 whole entry, further chain): as the sequence (A0A0A7HF79 whole entry, further chain, the tested form may be a part) above
Description: StCsm mediated synthesis of cyclic oligoadenylates from ATP. The synthesis reactions of cyclic oligoadenylates by StCsm were initiated by adding 10 mM CoCl2 into a mix of 200 nM StCsm, 200 nM target RNA, 50 μM ATP and 10 nM α^32P-ATP in the Reaction buffer (33 mM Tris-acetate (pH 7.6 at 37° C.), 66 mM K-acetate, 0.1 mg/ml BSA) and carried out at 37° C. for 1 h or 1.5 h, unless stated otherwise. StCsm reactions on different nucleoside triphosphates contained 200 nM of ternary StCsm, 50 μM of the non-labeled nucleotide and 10 nM of the corresponding α^32P-nucleotide. The reactions were stopped by adding 15 mM EDTA. Reaction products were separated by TLC on PEI Cellulose F plates (Merck) in 0.5 M phosphate buffer (pH 3.5 at 23° C.) or a denaturating 24% (19:1 acrylamide:bis-acrylamide) PAAG and visualized using autoradiography.
(FIG. 1A) ATP reaction of an individual StCas10 subunit. The reactions contained 200 nM StCas10, 50 μM ATP, 10 nM α^32P-ATP (Perkin Elmer), 200 nM target RNA S3/2 and/or 5 nM M13 mp18 ssDNA. The assays were performed at 37° C. in the Reaction buffer supplemented with 10 mM CoCl2. Samples were analyzed by thin-layer chromatography (TLC), followed by phosphorimaging. Reaction products of the binary StCsm complex (Cas/Csm proteins plus crRNA) and ATP in the absence or in the presence of single-stranded (ss) DNA are presented in (FIG. 1B) and (FIG. 1C), respectively. Reaction products of the ternary StCsm complex (Cas/Csm proteins plus crRNA and target RNA) and ATP in the absence or in the presence of ssDNA are presented in (FIG. 1D) and (FIG. 1E), respectively. The reactions contained 200 nM of the binary or ternary StCsm, 50 μM ATP, 10 nM α^32P-ATP and 10 nM M13 mp18 ssDNA. The assays were performed at 37° C. in the Reaction buffer supplemented with 10 mM CoCl2 and the samples were analyzed by TLC, followed by phosphorimaging. Heating α^32P-ATP at 95° C. for 60 min was used to generate radiolabeled ADP and AMP, which were used as a TLC control (marked as lane M). Rate constants of ATP decay, which are presented bellow each TLC plate, were calculated by fitting single exponentials to the substrate depletion data. Cartoons above the graphs depict reaction components: protospacer is grey in between black lines, the complementary strand (matching spacer in crRNA) is lighter grey, DNA is a black circle.
(FIG. 3A) Cartoons above gels depict ternary StCsm complexes that differ in the bound target RNA molecules in the same manner as in FIG. 1. The agarose gels show degradation patterns of 1 nM of circular M13 mp18 ssDNA in the presence of 5 nM ternary StCsm complexes containing different RNAs FIG. 3A is reproduced from (1). All RNA substrates used here are bound and cleaved by the StCsm ribonuclease (2). (FIG. 3B) Reaction products of various ternary StCsm complexes with ATP. The reactions contained 200 nM of the ternary StCsm with different nucleic acids (NA), 50 μM ATP and 10 nM α^32P-ATP. The assays were performed at 37° C. in the Reaction buffer supplemented with 10 mM CoCl2 and the samples were analyzed by TLC, followed by phosphorimaging. Heating α^32P-ATP at 95° C. for 60 min was used to generate radiolabeled ADP and AMP, which were used as a TLC control (marked as lane M).
(A) Ternary StCsm complex was incubated with ATP, 2′dATP, 3′dATP, GTP, CTP or UTP radiolabeled nucleotides. The reactions contained 200 nM of the ternary StCsm, 50 μM of the non-labeled nucleotide and 10 nM of the corresponding α^32P-nucleotide. The assays were performed at 37° C. for 60 min in the Reaction buffer supplemented with 10 mM CoCl2 and samples were analyzed by TLC, followed by phosphorimaging. (B) The products of StCsm-mediated 2′dATP reaction were further analyzed by ion pair reverse-phase (RP) HPLC-MS. On the left panel, HPLC analysis is presented. On the right panels, the isotopic patterns of ions (without one, (M-H)-, or two (M-2H)2-protons) of the identified compounds are presented.

StCsm6 = molecular target: T3, StCsm6 (Streptococcus thermophilus, UniProt A0A0A7HIX6); test: Csm6 nuclease assay, StCsm6; type: biochemical
T3 construct: HSH (StrepII tag plus two 6xHis tags) (N); made in house; host or cells: E. coli DH10B (ara)
T3 sequence (A0A0A7HIX6 1-428): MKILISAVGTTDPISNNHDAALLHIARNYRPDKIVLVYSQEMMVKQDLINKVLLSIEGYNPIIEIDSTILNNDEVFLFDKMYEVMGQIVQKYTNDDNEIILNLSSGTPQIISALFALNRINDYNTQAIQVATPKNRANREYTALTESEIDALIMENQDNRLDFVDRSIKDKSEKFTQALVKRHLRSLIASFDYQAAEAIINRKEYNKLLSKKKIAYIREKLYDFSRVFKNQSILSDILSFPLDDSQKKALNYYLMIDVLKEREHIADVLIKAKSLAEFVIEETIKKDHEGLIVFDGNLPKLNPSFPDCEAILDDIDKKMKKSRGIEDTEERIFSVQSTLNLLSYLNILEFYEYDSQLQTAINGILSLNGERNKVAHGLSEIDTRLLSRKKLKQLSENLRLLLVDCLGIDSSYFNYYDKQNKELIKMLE
Description: Csm6 nuclease assay. […] 5′P-oligoadenylates were obtained by incubating 3.(3) μM of non-phosphorylated linear oligoadenylate with 0.5 U T4 polynucleotide kinase and 1 mM ATP in the Reaction buffer A at 37° C. for 40 min.
Reactions were started by adding 0-10 μM Csm6 and carried out at 37° C. The reaction products were separated on a denaturing 15% (29:1 acrylamide:bis-acrylamide) PAAG and visualized by autoradiography. StCsm6 nuclease assays with ATP additionally contained 1 mM of ATP in the reaction mixture.

StCsm6′ = molecular target: T4, StCsm6′ (Streptococcus thermophilus, UniProt A0A0A7HFE6); test: Csm6 nuclease assay, StCsm6′; type: biochemical; conditions: ssRNA NS, 37° C. 30 min, 50 nM individual cyclic oligoadenylate
T4 construct: HSH (StrepII tag plus two 6xHis tags) (N); made in house; host or cells: E. coli DH10B (ara)
T4 sequence (A0A0A7HFE6 whole entry): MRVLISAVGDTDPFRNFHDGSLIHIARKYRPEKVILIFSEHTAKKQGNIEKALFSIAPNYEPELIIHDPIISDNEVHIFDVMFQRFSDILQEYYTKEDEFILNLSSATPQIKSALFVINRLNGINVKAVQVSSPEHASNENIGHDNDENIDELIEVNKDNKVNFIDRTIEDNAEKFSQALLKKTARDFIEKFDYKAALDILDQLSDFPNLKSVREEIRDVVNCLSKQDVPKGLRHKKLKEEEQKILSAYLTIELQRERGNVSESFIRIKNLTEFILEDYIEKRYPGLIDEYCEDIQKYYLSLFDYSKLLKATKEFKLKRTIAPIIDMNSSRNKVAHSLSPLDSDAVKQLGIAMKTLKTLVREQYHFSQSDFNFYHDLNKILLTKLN
Description: Csm6 nuclease assay. StCsm6, StCsm6′, and TtCsm6 nuclease assays were conducted in the Reaction buffer (33 mM Tris-acetate (pH 7.6 at 37° C.), 66 mM K-acetate, 0.1 mg/ml BSA) supplemented with 1 mM EDTA and containing 5 nM of 5′-radiolabeled and 5 nM of unlabeled RNA NS (unless stated otherwise; see all RNA substrates used in this study in Table 1) and 500 nM of cyclic oligoadenylate mixture or 0.5-500 nM of the HPLC purified cyclic oligoadenylate effectors or 5-500 nM linear oligoadenylate with various phosphorylation levels—linear oligoadenylate 5′-triphosphate (ChemGenes); non-phosphorylated, 3′P (Metabion) or 5′P containing linear oligoadenylates. 5′P-oligoadenylates were obtained by incubating 3.(3) μM of non-phosphorylated linear oligoadenylate with 0.5 U T4 polynucleotide kinase and 1 mM ATP in the Reaction buffer A at 37° C. for 40 min. […]
(FIG. 20A) Domain arrangement of StCsm6′. […] The elution profile of the StCsm6′ is presented with the calculated experimental molecular weight 108.1 kDa, corresponding to protein dimer. […]
Analysis of StCsm6 (FIG. 23A) and StCsm6′ (FIG. 23B) cleavage of ssRNA NS in the absence or presence of synthetic c(AMP)2 (c-di-AMP) (Sigma-Aldrich) or HPLC isolated c(AMP)3, c(AMP)4, c(AMP)5 (synthesized by StCsm from ATP) or c(AMP)6 (synthesized by StCsm from pp(pA)6 precursor). […] Samples were analyzed in denaturing PAAG, followed by phosphorimaging. […]

SMILES | reaction products formed from the nucleotide alone (ternary StCsm complex) | affinity towards nucleotide [1] | further results
Nc1ncnc2c1ncn2[C@H]1C[C@H](O)[C@@H](COP(=O)(O)OP(=O)(O)OP(=O)(O)O)O1 [2′dATP] | reacts with significantly lower efficiency |  | binding affinity, ternary StCsm complex ([1]; target RNA bound (ternary StCsm complex)): visibly decreases
Nc1ncnc2c1ncn2[C@@H]1O[C@H](COP(=O)(O)OP(=O)(O)OP(=O)(O)O)C[C@H]1O [3′dATP] | does not produce any reaction products |  | 
Nc1ncnc2c1ncn2[C@@H]1O[C@H](COP(=O)(O)O)[C@@H](O)[C@H]1O [AMP, adenosine monophosphate] | yields no products |  | 
Nc1ncnc2c1ncn2[C@@H]1O[C@H](COP(=O)(O)OP(=O)(O)OP(=O)(O)O)[C@@H](O)[C@H]1O [ATP, adenosine triphosphate] |  |  | Kd ([1]; in the presence or absence of target RNA): 10 to 20 nM; inhibition of StCsm6 RNase (StCsm6; 1 mM ATP): inhibited
Nc1ccn([C@@H]2O[C@H](COP(=O)(O)OP(=O)(O)OP(=O)(O)O)[C@@H](O)[C@H]2O)c(=O)n1 [CTP] | no reaction products are formed | no significant affinity | 
Nc1nc2c(ncn2[C@@H]2O[C@H](COP(=O)(O)OP(=O)(O)OP(=O)(O)O)[C@@H](O)[C@H]2O)c(=O)[nH]1 [GTP] | no reaction products are formed | no significant affinity | 
O=c1ccn([C@@H]2O[C@H](COP(=O)(O)OP(=O)(O)OP(=O)(O)O)[C@@H](O)[C@H]2O)c(=O)[nH]1 [UTP] | no reaction products are formed | no significant affinity | 
Nc1ncnc2c1ncn2[C@@H]1O[C@@H]2COP(=O)(O)O[C@H]3[C@@H](O)[C@H](n4cnc5c(N)ncnc54)O[C@@H]3COP(=O)(O)O[C@H]2[C@H]1O [c(AMP)2, c-di-AMP] |  |  | stimulation of StCsm6 ribonuclease activity (StCsm6; ssRNA NS, 37° C. 30 min, 50 nM individual cyclic oligoadenylate): only c(AMP)6 stimulated; stimulation of StCsm6′ ribonuclease activity (StCsm6′): only c(AMP)6 stimulated
